Laboratory results reported in patent US9999222B2, “Herbicidal combination comprising azines” (BASF SE, priority 2014, dated 2018).
Where two headings read alike, the source gives them in different places.

What was measured:
Test in all cases: Greenhouse test, pre-emergence treatment
ELEIN = format: in vivo, Eleusine indica
From the text: (§1) The culture containers used were plastic flowerpots containing loamy sand with approximately 3.0% of humus as the substrate. The seeds of the test plants were sown separately for each species.
(§2) For the pre-emergence treatment, the active ingredients, which had been suspended or emulsified in water, were applied directly after sowing by means of finely distributing nozzles. The containers were irrigated gently to promote germination and growth and subsequently covered with transparent plastic hoods until the plants had rooted. This cover caused uniform germination of the test plants, unless this had been impaired by the active ingredients.
(§3) Depending on the species, the plants were kept at 10-25° C. or 20-35° C., respectively.
(§4) The test period extended over 2 to 4 weeks. During this time, the plants were tended, and their response to the individual treatments was evaluated.
(§5) Evaluation was carried out using a scale from 0 to 100. 100 means no emergence of the plants, or complete destruction of at least the aerial moieties, and 0 means no damage, or normal course of growth. A moderate herbicidal activity is given at values of at least 60, a good herbicidal activity is given at values of at least 70, and a very good herbicidal activity is given at values of at least 85.
(§6) The respective stated components a and b, and if appropriate, c were formulated as a 10% by weight strength emulsion concentrate and, with addition of the amount of solvent system, introduced into the spray liquor used for applying the active compound.
(§7) In the examples, the solvent used was water.
(§8) In the examples below, using the method of S. R. Colby (1967) “Calculating synergistic and antagonistic responses of herbicide combinations”, Weeds 15, p. 22ff., the value E, which is expected if the activity of the individual active compounds is only additive, was calculated. E=X+Y−(X·Y/100) where • X=percent activity using active compound a at an application rate A; • Y=percent activity using active compound b at an application rate B; • E=expected activity (in %) by a+b at application rates A+B.
(§9) If the value found experimentally is higher than the value E calculated according to Colby, a synergistic effect is present.

ERICA [1] = format: in vivo, Erigeron canadensis
ERICA [2] = format: in vivo; settings: 480 h, read-out: observed % activity 20 DAT
ABUTH = format: in vivo, Abutilon theophrasti; settings: Abutilon theophrasti, 480 h, read-out: observed % activity 20 DAT
Method in brief: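 Damage was rated on a 0-100 scale, with 100 meaning no emergence or full destruction of aerial parts. Observed combination effects were set against the additive Colby expectation E=X+Y−(X·Y/100). Spray liquor was water-based, from 10% emulsion concentrates, applied pre-emergence right after sowing in loamy sand (about 3.0% humus). Plants were held at 10-25 °C or 20-35 °C for 2 to 4 weeks.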

CENCY [3] = format: in vivo; settings: individual
CENCY [4] = format: in vivo
DIGSA [5] = format: in vivo, Digitaria sanguinalis; settings: 4 g ai/ha
CENCY [6] = format: in vivo, Centaurea cyanus
SETVI = format: in vivo, Setaria viridis
From the text: as §1, §2, §3, §4, §5, §6, §7, §8, §9

DIGSA [7] = format: in vivo; settings: Digitaria sanguinalis, 480 h, read-out: observed % activity 20 DAT

SMILES: Nc1nc(Nc2c(F)c(F)cc(F)c2F)nc(C2(F)CCCC2)n1 [compound 9, 6-(1-fluorocyclopentyl)-N4-(2,3,5,6-tetrafluorophenyl)-1,3,5-triazine-2,4-diamine]
- observed % activity 20 DAT (ELEIN; 2 g ai/ha): 95%
- inhibition at 2 g/ha (ELEIN; Eleusine indica, 480 h, 2 g ai/ha, read-out: observed % activity 20 DAT): 95%
- inhibition at 4 g/ha (ELEIN; Eleusine indica, 480 h, 4 g ai/ha, read-out: observed % activity 20 DAT): 98%
- observed % activity 20 DAT (ERICA [1]; 4 g ai/ha): 98%
- observed % activity 20 DAT (ERICA [1]; 8 g ai/ha): 98%
- inhibition at 4 g/ha (ERICA [2]; 4 g ai/ha): 98%
- inhibition at 8 g/ha (ERICA [2]; 8 g ai/ha): 98%
- pest or weed control at 4 g/ha (ABUTH; 4 g ai/ha): 55%
- inhibition at 8 g/ha (ABUTH; 8 g ai/ha): 20%
- pest or weed control at 8 g/ha (ABUTH; 8 g ai/ha): 40%
- inhibition at 16 g/ha (ABUTH; 16 g ai/ha): 20%
- inhibition at 8 g/ha (ABUTH; ABUTH, individual, use rate 8 g ai/ha): 20%
- inhibition at 16 g/ha (ABUTH; ABUTH, individual, use rate 16 g ai/ha): 20%
- inhibition at 8 g/ha (CENCY [3]; 480 h, use rate 8 g ai/ha, read-out: observed % activity 20 DAT): 20%
- inhibition at 16 g/ha (CENCY [3]; 480 h, use rate 16 g ai/ha, read-out: observed % activity 20 DAT): 15%
- observed % activity 20 DAT (CENCY [3]; use rate 8 g ai/ha): 35%
- observed % activity 20 DAT (CENCY [4]; 8 g ai/ha): 35%
- inhibition at 4 g/ha (CENCY [4]; 480 h, 4 g ai/ha, read-out: observed % activity 20 DAT): 40%
- inhibition at 8 g/ha (CENCY [4]; 480 h, 8 g ai/ha, read-out: observed % activity 20 DAT): 20%
- inhibition at 16 g/ha (CENCY [4]; 480 h, 16 g ai/ha, read-out: observed % activity 20 DAT): 10%
- observed % activity 20 DAT (DIGSA [5]): 80%
- observed % activity 20 DAT (CENCY [6]; 4 g ai/ha): 40%
- observed % activity 20 DAT (CENCY [6]; 8 g ai/ha): 20%
- observed % activity 20 DAT (SETVI; 2 g ai/ha): 90%
- observed % activity 20 DAT (SETVI; 4 g ai/ha): 90%
- inhibition at 2 g/ha (SETVI; Setaria viridis, 480 h, 2 g ai/ha, read-out: observed % activity 20 DAT): 70%
- inhibition at 4 g/ha (SETVI; Setaria viridis, 480 h, 4 g ai/ha, read-out: observed % activity 20 DAT): 80%
- inhibition at 2 g/ha (DIGSA [7]; 2 g ai/ha): 75%
- inhibition at 4 g/ha (DIGSA [7]; 4 g ai/ha): 60%
